The source of these data is patent US20240245793A1, “PSD-95 INHIBITORS AND USES THEREOF” (priority 2021, published 2024).

Where two headings read alike, the source gives them in different places.

For data set [1], the target named is T1, plasmin (Homo sapiens, UniProt P00747).
T1 construct: Tissue plasminogen factor (tPA), which generates plasmin from plasminogen
Put plainly: In vitro plasmin stability assay. Type of data set: in vitro ADME. Particulars: isolated enzyme plasmin. The method, then:
At selected time points during the incubation, the ligands were extracted from 80 μL of assay matrix by treatment with 80 μL of 50% acetonitrile (ACN). The samples were filtered and analysed by UPLC to determine the amount of ligand remaining. LC-MS analysis was performed to confirm ligand integrity and identify cleavage sites.

The test system of data set [2] is HeLa cells stably expressing HaloGFP. Description: Chloroalkane penetration assay (CAPA), membrane permeability and cellular uptake. Type of data set: cell-based. The procedure, abridged: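 Pulse-chase CAPA: HeLa cells with cytosolic HaloGFP exposed to serially diluted chloroalkane-tagged compound for 4 h at 37 °C, washed, chased with TAMRA-CA (5 μM) for 15 min, then read by flow cytometry. CP50 is half-maximal red fluorescence from normalized dose-response curves; signal falls as penetration rises.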

T1 sequence (P00747 581-810 limits assumed, species assumed): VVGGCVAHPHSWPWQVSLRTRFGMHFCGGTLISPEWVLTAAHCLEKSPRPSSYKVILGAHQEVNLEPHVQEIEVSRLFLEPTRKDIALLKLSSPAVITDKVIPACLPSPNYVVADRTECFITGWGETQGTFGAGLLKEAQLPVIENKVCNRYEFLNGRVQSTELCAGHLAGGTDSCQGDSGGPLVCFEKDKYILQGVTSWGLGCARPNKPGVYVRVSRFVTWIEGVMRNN
T1 sequence (P00747 97-580 partner limits assumed, species assumed): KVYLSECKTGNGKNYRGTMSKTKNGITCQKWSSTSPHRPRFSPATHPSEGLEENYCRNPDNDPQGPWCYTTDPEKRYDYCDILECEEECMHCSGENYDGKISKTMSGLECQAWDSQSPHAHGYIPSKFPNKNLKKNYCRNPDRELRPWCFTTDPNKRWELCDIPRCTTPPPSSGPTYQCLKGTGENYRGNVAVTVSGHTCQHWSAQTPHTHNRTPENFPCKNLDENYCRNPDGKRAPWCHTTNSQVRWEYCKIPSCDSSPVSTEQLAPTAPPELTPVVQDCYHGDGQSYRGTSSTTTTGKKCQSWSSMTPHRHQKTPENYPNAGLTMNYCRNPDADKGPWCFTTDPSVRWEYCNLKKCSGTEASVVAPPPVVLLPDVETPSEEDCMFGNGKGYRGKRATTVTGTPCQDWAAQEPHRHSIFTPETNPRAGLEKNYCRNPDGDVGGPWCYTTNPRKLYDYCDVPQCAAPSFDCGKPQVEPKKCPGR

As for `CC[C@H](C)[C@H](NC(=O)CCOCCOCCN(CCOCCOCCC(=O)N[C@H](C(=O)N[C@@H](CCC(=O)O)C(=O)N[C@H](C(=O)N[C@@H](CC(=O)O)C(=O)N[C@H](C(=O)O)C(C)C)[C@@H](C)O)[C@@H](C)CC)C(=O)[C@H](CCCCN)NC(=O)[C@H](CCCCN)NC(=O)[C@H](Cc1c[nH]c2ccccc12)NC(=O)[C@H](CCCCN)NC(=O)[C@H](CCSC)NC(=O)[C@H](CCCNC(=N)N)NC(=O)[C@H](CCCNC(=N)N)NC(=O)[C@H](CC(N)=O)NC(=O)[C@H](CCC(N)=O)NC(=O)[C@H](Cc1ccccc1)NC(=O)[C@H](Cc1c[nH]c2ccccc12)NC(=O)[C@@H](NC(=O)[C@H](CCCCN)NC(=O)[C@@H](NC(=O)[C@H](CCC(N)=O)NC(=O)[C@H](CCCNC(=N)N)NC(C)=O)[C@@H](C)CC)[C@@H](C)CC)C(=O)N[C@@H](CCC(=O)O)C(=O)N[C@H](C(=O)N[C@@H](CC(=O)O)C(=O)N[C@H](C(=O)O)C(C)C)[C@@H](C)O` [Compound 46], the half-life in data set [1] worked out at 1.57 ± 0.133 h.

`CC[C@H](C)[C@H](NC(=O)CCOCCOCCN(CCOCCOCCC(=O)N[C@H](C(=O)N[C@@H](CO)C(=O)N[C@H](C(=O)N[C@@H](CC(=O)O)C(=O)N[C@H](C(=O)O)C(C)C)[C@@H](C)O)[C@@H](C)CC)C(=O)[C@H](CCCNC(=N)N)NC(=O)[C@H](CCCNC(=N)N)NC(=O)[C@H](CCCNC(=N)N)NC(=O)[C@H](CCCNC(=N)N)NC(=O)[C@H](CCCNC(=N)N)NC(=O)[C@H](CCCNC(=N)N)NC(=O)[C@H](CCCNC(=N)N)NC(=O)[C@H](CCCNC(=N)N)NC(=O)[C@H](CCCNC(=N)N)NC(C)=O)C(=O)N[C@@H](CO)C(=O)N[C@H](C(=O)N[C@@H](CC(=O)O)C(=O)N[C@H](C(=O)O)C(C)C)[C@@H](C)O` [Compound 31] had a half-life at 100 μM in data set [1] of 23.4 ± 2.07 h.

As to `CC(=O)N[C@@H](CCCNC(=N)N)C(=O)N[C@@H](CCCNC(=N)N)C(=O)N[C@@H](CCCNC(=N)N)C(=O)N[C@@H](CCCNC(=N)N)C(=O)N[C@@H](CCCNC(=N)N)C(=O)N[C@@H](CCCNC(=N)N)C(=O)N[C@@H](CCCNC(=N)N)C(=O)N[C@@H](CCCNC(=N)N)C(=O)N[C@@H](CCCNC(=N)N)C(=O)N(CCOCCOCCC(=O)N[C@H](C(=O)N[C@@H](CCC(=O)O)C(=O)N[C@H](C(=O)N[C@H](C(=O)N[C@H](C(=O)O)C(C)C)C(C)C)[C@@H](C)O)C(C)C)CCOCCOCCC(=O)N[C@H](C(=O)N[C@@H](CCC(=O)O)C(=O)N[C@H](C(=O)N[C@H](C(=O)N[C@H](C(=O)O)C(C)C)C(C)C)[C@@H](C)O)C(C)C` [Compound 33], the half-life at 100 μM in data set [1] was found to be 7.98 ± 1.28 h.

In data set [1], `CC[C@H](C)[C@H](NC(=O)CCOCCOCCN(CCOCCOCCC(=O)N[C@H](C(=O)N[C@@H](CCC(=O)O)C(=O)N[C@H](C(=O)N[C@@H](CC(=O)O)C(=O)N[C@H](C(=O)O)C(C)C)[C@@H](C)O)[C@@H](C)CC)C(=O)[C@H](CO)NC(=O)[C@H](CCC(=O)O)NC(=O)[C@H](CCCNC(=N)N)NC(=O)[C@H](CCCNC(=N)N)NC(=O)[C@H](CCCNC(=N)N)NC(=O)[C@H](CCCCN)NC(=O)[C@H](CCCCN)NC(=O)[C@H](CCCNC(=N)N)NC(=O)[C@H](CO)NC(=O)[C@H](CCC(=O)O)NC(=O)[C@H](CCCNC(=N)N)NC(=O)[C@H](CCCNC(=N)N)NC(=O)[C@H](CCCNC(=N)N)NC(=O)[C@H](CCCCN)NC(=O)[C@H](CCCCN)NC(=O)[C@H](CCCNC(=N)N)NC(C)=O)C(=O)N[C@@H](CCC(=O)O)C(=O)N[C@H](C(=O)N[C@@H](CC(=O)O)C(=O)N[C@H](C(=O)O)C(C)C)[C@@H](C)O` [Compound 50] registered a half-life at 100 μM of 2.82 ± 0.333 h.

On to `CC[C@H](C)[C@H](NC(=O)CCOCCOCCN(CCOCCOCCC(=O)N[C@H](C(=O)N[C@@H](CCC(=O)O)C(=O)N[C@H](C(=O)N[C@@H](CC(=O)O)C(=O)N[C@H](C(=O)O)C(C)C)[C@@H](C)O)[C@@H](C)CC)C(=O)[C@@H](CCCNC(=N)N)NC(=O)[C@@H](CCCNC(=N)N)NC(=O)[C@@H](CCCNC(=N)N)NC(=O)[C@@H](CCC(N)=O)NC(=O)[C@@H](CCCNC(=N)N)NC(=O)[C@@H](CCCNC(=N)N)NC(=O)[C@@H](CCCCN)NC(=O)[C@@H](CCCCN)NC(=O)[C@@H](CCCNC(=N)N)NC(=O)CNC(=O)[C@@H](Cc1ccc(O)cc1)NC(C)=O)C(=O)N[C@@H](CCC(=O)O)C(=O)N[C@H](C(=O)N[C@@H](CC(=O)O)C(=O)N[C@H](C(=O)O)C(C)C)[C@@H](C)O` [Compound 38], for which, in data set [1] (read-out: T1/2), the half-life was found to be 24 h.

The molecule `CC(=O)N[C@@H](CCCNC(=N)N)C(=O)N[C@@H](CCCNC(=N)N)C(=O)N[C@@H](CCCNC(=N)N)C(=O)N[C@@H](CCCNC(=N)N)C(=O)N[C@@H](CCCNC(=N)N)C(=O)N[C@@H](CCCNC(=N)N)C(=O)N[C@@H](CCCNC(=N)N)C(=O)N[C@@H](CCCNC(=N)N)C(=O)N[C@@H](CCCNC(=N)N)C(=O)N(CCOCCOCCC(=O)N[C@@H](CCCCN)C(=O)N[C@@H](CCC(=O)O)C(=O)N[C@H](C(=O)N[C@H](C(=O)N[C@H](C(=O)O)C(C)C)[C@@H](C)O)[C@@H](C)O)CCOCCOCCC(=O)N[C@@H](CCCCN)C(=O)N[C@@H](CCC(=O)O)C(=O)N[C@H](C(=O)N[C@H](C(=O)N[C@H](C(=O)O)C(C)C)[C@@H](C)O)[C@@H](C)O` [Compound 25] had a half-life at 100 μM in data set [1] of 19.2 ± 3.38 h.

In turn, `CC[C@H](C)[C@H](NC(=O)CCOCCOCCN(CCOCCOCCC(=O)N[C@H](C(=O)N[C@@H](CCC(=O)O)C(=O)N[C@H](C(=O)N[C@@H](CC(=O)O)C(=O)N[C@H](C(=O)O)C(C)C)[C@@H](C)O)[C@@H](C)CC)C(=O)[C@H](Cc1ccccc1)NC(=O)[C@H](CCC(N)=O)NC(=O)CNC(=O)[C@H](CCCNC(=N)N)NC(=O)[C@H](CC(C)C)NC(=O)[C@H](CC(C)C)NC(=O)[C@H](CCCNC(=N)N)NC(=O)[C@H](CC(C)C)NC(=O)[C@H](Cc1ccc(O)cc1)NC(=O)[C@@H](NC(=O)[C@H](CC(C)C)NC(=O)[C@@H]1CCCN1C(C)=O)[C@@H](C)CC)C(=O)N[C@@H](CCC(=O)O)C(=O)N[C@H](C(=O)N[C@@H](CC(=O)O)C(=O)N[C@H](C(=O)O)C(C)C)[C@@H](C)O` [Compound 56] showed a half-life at 100 μM in data set [1] of 15.2 h.

Take `CC(=O)N[C@@H](CCCNC(=N)N)C(=O)N[C@@H](CCCNC(=N)N)C(=O)N[C@@H](CCCNC(=N)N)C(=O)N[C@@H](CCCNC(=N)N)C(=O)N[C@@H](CCCNC(=N)N)C(=O)N[C@@H](CCCNC(=N)N)C(=O)N[C@@H](CCCNC(=N)N)C(=O)N[C@@H](CCCNC(=N)N)C(=O)N[C@@H](CCCNC(=N)N)C(=O)N(CCOCCOCCC(=O)N[C@@H](CCCCN)C(=O)N[C@@H](CCC(=O)O)C(=O)N[C@H](C(=O)N[C@@H](CCCNC(=N)N)C(=O)N[C@H](C(=O)O)C(C)C)[C@@H](C)O)CCOCCOCCC(=O)N[C@@H](CCCCN)C(=O)N[C@@H](CCC(=O)O)C(=O)N[C@H](C(=O)N[C@@H](CCCNC(=N)N)C(=O)N[C@H](C(=O)O)C(C)C)[C@@H](C)O` [Compound 29]: the half-life at 100 μM in data set [1] is 16.7 ± 2.85 h.

As to `CC[C@@H](C)[C@@H](NC(=O)[C@@H](CCCCN)NC(=O)[C@H](NC(=O)[C@@H](CCC(N)=O)NC(=O)[C@@H](CCCNC(=N)N)NC(C)=O)[C@H](C)CC)C(=O)N[C@H](Cc1c[nH]c2ccccc12)C(=O)N[C@H](Cc1ccccc1)C(=O)N[C@H](CCC(N)=O)C(=O)N[C@H](CC(N)=O)C(=O)N[C@H](CCCNC(=N)N)C(=O)N[C@H](CCCNC(=N)N)C(=O)N[C@H](CCSC)C(=O)N[C@H](CCCCN)C(=O)N[C@H](Cc1c[nH]c2ccccc12)C(=O)N[C@H](CCCCN)C(=O)N[C@H](CCCCN)C(=O)N(CCOCCOCCC(=O)N[C@H](C(=O)N[C@@H](CCC(=O)O)C(=O)N[C@H](C(=O)N[C@@H](CC(=O)O)C(=O)N[C@H](C(=O)O)C(C)C)[C@@H](C)O)[C@@H](C)CC)CCOCCOCCC(=O)N[C@H](C(=O)N[C@@H](CCC(=O)O)C(=O)N[C@H](C(=O)N[C@@H](CC(=O)O)C(=O)N[C@H](C(=O)O)C(C)C)[C@@H](C)O)[C@@H](C)CC` [Compound 48], the half-life in data set [1] (read-out: T1/2) worked out at 24 h.

Regarding `CC[C@H](C)[C@H](NC(=O)CCOCCOCCN(CCOCCOCCC(=O)N[C@H](C(=O)N[C@@H](CCC(=O)O)C(=O)N[C@H](C(=O)N[C@@H](CC(=O)O)C(=O)N[C@H](C(=O)O)C(C)C)[C@@H](C)O)[C@@H](C)CC)C(=O)[C@@H]1CC(=O)NC[C@H](NC(C)=O)C(=O)N[C@@H](CCCCN)C(=O)N[C@@H](C)C(=O)N2CCC[C@H]2C(=O)N[C@@H](CCC(=O)O)C(=O)N[C@@H]([C@@H](C)O)C(=O)N[C@@H](C)C(=O)N[C@@H](CC(C)C)C(=O)N1)C(=O)N[C@@H](CCC(=O)O)C(=O)N[C@H](C(=O)N[C@@H](CC(=O)O)C(=O)N[C@H](C(=O)O)C(C)C)[C@@H](C)O` [Compound 60], the half-life at 100 μM in data set [1] (read-out: T1/2) is 24 h.

In the case of `CC(C)[C@H](NC(=O)[C@@H](NC(=O)[C@@H](NC(=O)[C@H](CCC(=O)O)NC(=O)[C@H](CCCCN)NC(=O)CCOCCOCCN(CCOCCOCCC(=O)N[C@@H](CCCCN)C(=O)N[C@@H](CCC(=O)O)C(=O)N[C@H](C(=O)N[C@H](C(=O)N[C@H](C(=O)O)C(C)C)[C@@H](C)O)[C@@H](C)O)C(=O)[C@H](CCCNC(=N)N)NC(=O)[C@H](CCCNC(=N)N)NC(=O)[C@H](CCCNC(=N)N)NC(=O)[C@H](CCCNC(=N)N)NC(=O)[C@H](CCCNC(=N)N)NC(=O)[C@H](CCCNC(=N)N)NC(=O)[C@H](CCCNC(=N)N)NC(=O)[C@H](CCCNC(=N)N)NC(=O)[C@H](CCCNC(=N)N)NC(=O)CCC(=O)NCCOCCOCCCCCCCl)[C@@H](C)O)[C@@H](C)O)C(=O)O` [Compound 26], the CP50 in data set [2] stood at 0.74 ± 0.09 µM.

`CC(C)[C@H](NC(=O)[C@@H](NC(=O)[C@@H](NC(=O)[C@H](CCC(=O)O)NC(=O)[C@@H](NC(=O)CCOCCOCCN(CCOCCOCCC(=O)N[C@H](C(=O)N[C@@H](CCC(=O)O)C(=O)N[C@H](C(=O)N[C@H](C(=O)N[C@H](C(=O)O)C(C)C)C(C)C)[C@@H](C)O)C(C)C)C(=O)[C@H](CCCNC(=N)N)NC(=O)[C@H](CCCNC(=N)N)NC(=O)[C@H](CCCNC(=N)N)NC(=O)[C@H](CCCNC(=N)N)NC(=O)[C@H](CCCNC(=N)N)NC(=O)[C@H](CCCNC(=N)N)NC(=O)[C@H](CCCNC(=N)N)NC(=O)[C@H](CCCNC(=N)N)NC(=O)[C@H](CCCNC(=N)N)NC(=O)CCC(=O)NCCOCCOCCCCCCCl)C(C)C)[C@@H](C)O)C(C)C)C(=O)O` [Compound 34]: the CP50 in data set [2] amounted to 0.84 ± 0.15 µM.
